From PMC6273431, “The Structure–Antimicrobial Activity Relationships of a Promising Class of the Compounds Containing the N-Arylpiperazine Scaffold” (Molecules, 2016)
Where two headings read alike, the source gives them in different places.

How the values were obtained:
M. kansasii DSM 44162 = experiment: antimycobacterial MIC, broth dilution micromethod; assay type: cell-based; settings: Mycobacterium kansasii, DSM44162, 168 h, 7 days at 37 °C
[1] = test system: methicillin-resistant Staphylococcus aureus 63718; experiment: antibacterial MIC, microtitration broth method; assay type: cell-based; settings: MRSA, 37 °C
Method: (§1) Prior to the testing, each strain was transferred into a nutrient agar (Oxoid Limited, Basingstoke, UK), which was enriched with 5% defibrinated bovine blood.
(§2) The MICs were determined by the microtitration broth method in the cation-adjusted Mueller-Hinton broth (Becton Dickinson, Oxford, UK) according to an international interdisciplinary Clinical Laboratory Standard Institute guidelines.
(§3) The checkerboard was inoculated by the bacterial inocula, which were prepared in a phosphate buffered saline solution with the pH = 7.2–7.3 to simulate physiological pH. The final concentration of each inoculum in the final volume of 100 μL in the wells was approximately 7.5 × 10^6 CFU/mL. Drug-free controls, sterility controls and the controls consisted of the broth with DMSO were included. The determination of the results was performed visually after 24 h of static incubation in the darkness at 37 °C in an aerobic atmosphere.
(§4) To ensure reproducibility, each antibacterial MIC assay was performed triplicate on separate occasions.

[2] = test system: Escherichia coli ATCC 25922; experiment: antibacterial MIC, microtitration broth method; assay type: cell-based; settings: 37 °C
Method: as §1, §2, §3, §4

[3] = test system: Staphylococcus aureus ATCC 29213; experiment: antibacterial MIC, microtitration broth method; assay type: cell-based; settings: 37 °C
Method: as §1, §2, §3, §4

[4] = test system: Enterococcus faecalis ATCC 29212; experiment: antibacterial MIC, microtitration broth method; assay type: cell-based; settings: 37 °C
Method: as §1, §2, §3, §4

M. marinum CAMP 5644 = experiment: antimycobacterial MIC, broth dilution micromethod; assay type: cell-based; settings: Mycobacterium marinum, CAMP5644, 504 h, 21 days at 28 °C
[5] = design: method as in PMID 16209439, PMID 16209439, doi:10.2478/s11696-006-0007-y; settings: octan-1-ol/phosphate buffer (pH = 7.4); cited from earlier work
[6] = test system: Candida parapsilosis CCM 8260; experiment: candidacidal MIC, microdilution method; assay type: cell-based; settings: Lodderomyces parapsilosis, CCM8260, 48 h, 37 °C
Method: (§5) In order to provide a look into the potential usefulness of the derivatives 5a–l as the candidates for a development of anti-yeast (candidacidal) agents, they were in vitro tested against Candida albicans CCM 8261 (CA 8261), C. krusei CCM 8271 (CK 8271) and C. parapsilosis CCM 8260 (CP 8260). The yeasts were obtained from the Czech Collection of Microorganisms (Masaryk University, Faculty of Science, Brno, Czech Republic). They were grown and kept on Sabouraud agar (Oxoid Limited, Basingstoke, UK).
(§6) For the screening, the microdilution method according to the Antimicrobial Susceptibility Testing Protocols was applied. The inoculum was prepared from the cultures grown on Sabouraud agar. With the sterile solution of NaCl, the inoculum was prepared to the 0.5 McFarland units using the Densi-La-Meter densitometer (LIAP, Riga, Latvia) and diluted a thousand‑fold with the Roswell Park Memorial Institute (RPMI) 1640 medium (Sigma-Aldrich, Darmstadt, Germany). Prepared suspension was used for an inoculation of microtitre plates. Final concentration in wells ranged from 5.0 × 10^2 CFU/mL to 2.5 × 10^3 CFU/mL. […] For the determination of the MICs, the stock solutions of all the tested compounds were diluted in the microtitre checkerboard to the final concentration varying from 128 μg/mL to 0.125 μg/mL. Drug-free control, sterility control and the control consisted of a medium and DMSO alone were included. Inoculated microtitre plates were incubated for 48 h in the darkness at 37 °C in an aerobic atmosphere. The results were estimated against static light.
(§7) The MIC was defined as the lowest concentration of the tested compound at which no visible growth was observed. To ensure reproducibility of the results, each candidacidal MIC assay was performed triplicate on separate occasions. It was important to note that all the MICs from the in vitro antimicrobial screening were expressed in μg/mL units and were available in Tables S3 and S4 (Supplementary Materials).

Candida krusei CCM 8271 = experiment: candidacidal MIC, microdilution method; assay type: cell-based; settings: Pichia kudriavzevii, CCM8271, 48 h, 37 °C
Method: as §5, §6, §7

[7] = test system: Candida albicans CCM 8261; experiment: candidacidal MIC, microdilution method; assay type: cell-based; settings: Candida albicans, CCM8261, 48 h, 37 °C
Method: as §5, §6, §7

[8] = test system: Mycobacterium avium subsp. paratuberculosis CIT03; experiment: antimycobacterial MIC, MB broth, alamarBlue; assay type: cell-based; settings: 264 h, read-out: MIC MAP
Method: The Mycobacterium avium subsp. paratuberculosis CIT03 strain was grown in the Middlebrook (MB) broth, supplemented with the Oleic-Albumin-Dextrose-Catalase Supplement (OADC, Becton Dickinson, Oxford, UK) and the mycobactin J (2 μg/mL). The commercially available siderophore mycobactin J reduced the incubation period of M. avium subsp. paratuberculosis in a complex medium when compared to the medium containing the mycobactin P as a growth factor.
The identification of the isolate was performed using biochemical and molecular protocols. At a log phase growth, a culture sample (10 mL) was centrifuged at 15,000 rpm/20 min using a bench top centrifuge (Model CR 4-12, Jouan Inc., London, UK). Following removal of the supernatant, the pellet was washed in fresh Middlebrook 7H9GC broth and re-suspended in fresh supplemented MB broth (10 mL). The turbidity was adjusted to match the McFarland standard No. 1 containing approximately 3.0 × 10^8 Colony Forming Units (CFU) with the MB broth. Further 1:20 dilution of the culture was performed in the MB broth. The susceptibility of given mycobacterial species was investigated in a 96-well plate format. In those experiments, sterile deionised water (300 μL) was added to all outer-perimeter wells of the plates to minimize an evaporation of the medium in the test wells during the incubation process. Each evaluated compound (100 μL) was incubated with the mycobacterial species (100 μL). The dilutions of a particular compound were prepared in triplicate. For all inspected derivatives, final concentrations ranged from 1000 μg/mL to 60 μg/mL. All compounds were prepared in dimethyl sulfoxide (DMSO; Sigma-Aldrich, Irvine, UK) and subsequent dilutions were made in the supplemented MB broth. The plates were sealed with a parafilm and incubated at 37 °C for 11 days. Following the incubation, a 10% addition of a water‑soluble dye, the alamarBlue reagent (AbD Serotec, Kidlington, UK), was mixed into each well. Absorbance readings at 570 nm and 600 nm were taken, initially for background subtraction and after 24 h re-incubation. The subtraction is necessary for strongly coloured compounds, where the colour may interfere with the interpretation of any colour change. For non-interfering compounds, a blue colour in a well was interpreted as an absence of a growth and a pink colour was scored as a growth.
The minimum inhibitory concentration (MIC) was defined as the lowest concentration of the compound at which no visible bacterial growth was observed. In other words, the MIC was the lowest concentration that prevented a visual colour change from blue to pink. The MIC value has been routinely and widely used in bacterial assays and it has been a standard detection limit according to the Clinical and Laboratory Standards Institute. The clinically used antimycobacterial drugs INH and RIF were applied as the standards.

[9] = design: method as in PMID 16209439, PMID 16209439; settings: potentiometric titration; cited from earlier work
M. smegmatis ATCC 700084 = experiment: antimycobacterial MIC, broth dilution micromethod; assay type: cell-based; settings: Mycolicibacterium smegmatis, ATCC700084, 72 h, 3 days at 37 °C

Question: With `COc1ccc(NC(=O)OCC(O)CN2CCN(c3ccc(F)cc3)CC2)cc1` (stereo not drawn) [Compound 5k] as the compound, how does the MIC (M. kansasii DSM 44162) read?
Answer: 291 µM

Question: What about the MIC (M. kansasii DSM 44162; Table S3) of the same compound?
Answer: 128 µg/mL

Question: And the MIC ([1]; 24 h)?
Answer: > 582 µM

Question: What about the MIC ([1]; Table S4, 24 h) of the same compound?
Answer: > 256 µg/mL

Question: What about the MIC ([2]; ATCC25922, 24 h) of the same compound?
Answer: > 582 µM

Question: What about the MIC ([2]; ATCC25922, Table S4, 24 h) of the same compound?
Answer: > 256 µg/mL

Question: What about the MIC ([3]; ATCC29213, 24 h) of the same compound?
Answer: > 582 µM

Question: And the MIC ([3]; ATCC29213, Table S4, 24 h)?
Answer: > 256 µg/mL

Question: What about the MIC ([4]; ATCC29212, 24 h) of the same compound?
Answer: > 582 µM

Question: And the MIC ([4]; ATCC29212, Table S4, 24 h)?
Answer: > 256 µg/mL

Question: And the MIC (M. marinum CAMP 5644)?
Answer: 582 µM

Question: What about the MIC (M. marinum CAMP 5644; Table S3) of the same compound?
Answer: 256 µg/mL

Question: What about the “log Pexp” value [5] of the same compound?
Answer: 3.42

Question: What about the MIC [6] of the same compound?
Answer: > 291 µM

Question: What about the MIC ([6]; Table S4) of the same compound?
Answer: > 128 µg/mL

Question: What about the MIC (Candida krusei CCM 8271) of the same compound?
Answer: > 291 µM

Question: And the MIC (Candida krusei CCM 8271; Table S4)?
Answer: > 128 µg/mL

Question: What about the MIC [7] of the same compound?
Answer: > 291 µM

Question: What about the MIC ([7]; Table S4) of the same compound?
Answer: > 128 µg/mL

Question: What about the MIC ([8]; 37 °C, 11 days) of the same compound?
Answer: 2270 µM

Question: And the MIC [8]?
Answer: 1000 µg/mL

Question: And the pKa [9]?
Answer: 7.24

Question: What about the MIC (M. smegmatis ATCC 700084) of the same compound?
Answer: 582 µM

Question: And the MIC (M. smegmatis ATCC 700084; Table S3)?
Answer: 256 µg/mL

Question: What does the source list for `COc1ccc(NC(=O)OCC(O)CN2CCN(c3cccc(C(F)(F)F)c3)CC2)cc1` (stereo not drawn) [Compound 5e, 1-{2-hydroxy-3-(4-methoxyphenylcarbamoyl)oxy)propyl}-4-(3-trifluoromethylphenyl)piperazin-1-ium chloride]?
Answer: MIC (M. kansasii DSM 44162): 65.3 µM; MIC (M. kansasii DSM 44162; Table S3): 32 µg/mL; MIC ([1]; 24 h): > 523 µM; MIC ([1]; Table S4, 24 h): > 256 µg/mL; MIC ([2]; ATCC25922, 24 h): > 523 µM; MIC ([2]; ATCC25922, Table S4, 24 h): > 256 µg/mL; MIC ([3]; ATCC29213, 24 h): > 523 µM; MIC ([3]; ATCC29213, Table S4, 24 h): > 256 µg/mL; MIC ([4]; ATCC29212, 24 h): > 523 µM; MIC ([4]; ATCC29212, Table S4, 24 h): > 256 µg/mL; MIC (M. marinum CAMP 5644): 65.3 µM; MIC (M. marinum CAMP 5644; Table S3): 32 µg/mL; log Pexp [5]: 3.60; MIC [6]: > 261 µM; MIC ([6]; Table S4): > 128 µg/mL; MIC (Candida krusei CCM 8271): > 261 µM; MIC (Candida krusei CCM 8271; Table S4): > 128 µg/mL; MIC [7]: > 261 µM; MIC ([7]; Table S4): > 128 µg/mL; MIC ([8]; 37 °C, 11 days): 1020 µM; MIC [8]: 500 µg/mL; pKa [9]: 5.66; MIC (M. smegmatis ATCC 700084): 523 µM; MIC (M. smegmatis ATCC 700084; Table S3): 256 µg/mL

Question: What does the source list for `CCOc1ccc(NC(=O)OCC(O)CN2CCN(c3cccc(C(F)(F)F)c3)CC2)cc1` (stereo not drawn) [Compound 5f]?
Answer: MIC (M. kansasii DSM 44162): 508 µM; MIC (M. kansasii DSM 44162; Table S3): 256 µg/mL; MIC ([1]; 24 h): > 508 µM; MIC ([1]; Table S4, 24 h): > 256 µg/mL; MIC ([2]; ATCC25922, 24 h): > 508 µM; MIC ([2]; ATCC25922, Table S4, 24 h): > 256 µg/mL; MIC ([3]; ATCC29213, 24 h): > 508 µM; MIC ([3]; ATCC29213, Table S4, 24 h): > 256 µg/mL; MIC ([4]; ATCC29212, 24 h): > 508 µM; MIC ([4]; ATCC29212, Table S4, 24 h): > 256 µg/mL; MIC (M. marinum CAMP 5644): 254 µM; MIC (M. marinum CAMP 5644; Table S3): 128 µg/mL; log Pexp [5]: 3.71; MIC [6]: > 254 µM; MIC ([6]; Table S4): > 128 µg/mL; MIC (Candida krusei CCM 8271): > 254 µM; MIC (Candida krusei CCM 8271; Table S4): > 128 µg/mL; MIC [7]: > 254 µM; MIC ([7]; Table S4): > 128 µg/mL; MIC ([8]; 37 °C, 11 days): 992 µM; MIC [8]: 500 µg/mL; pKa [9]: 5.69; MIC (M. smegmatis ATCC 700084): 508 µM; MIC (M. smegmatis ATCC 700084; Table S3): 256 µg/mL
